Reference: ChEMBL document CHEMBL4184331 (J Med Chem, 2018)

Assays:
[1] = target: T1, Glucocorticoid receptor (Homo sapiens, UniProt P04150); test: biochemical
T1 sequence (P04150 whole entry): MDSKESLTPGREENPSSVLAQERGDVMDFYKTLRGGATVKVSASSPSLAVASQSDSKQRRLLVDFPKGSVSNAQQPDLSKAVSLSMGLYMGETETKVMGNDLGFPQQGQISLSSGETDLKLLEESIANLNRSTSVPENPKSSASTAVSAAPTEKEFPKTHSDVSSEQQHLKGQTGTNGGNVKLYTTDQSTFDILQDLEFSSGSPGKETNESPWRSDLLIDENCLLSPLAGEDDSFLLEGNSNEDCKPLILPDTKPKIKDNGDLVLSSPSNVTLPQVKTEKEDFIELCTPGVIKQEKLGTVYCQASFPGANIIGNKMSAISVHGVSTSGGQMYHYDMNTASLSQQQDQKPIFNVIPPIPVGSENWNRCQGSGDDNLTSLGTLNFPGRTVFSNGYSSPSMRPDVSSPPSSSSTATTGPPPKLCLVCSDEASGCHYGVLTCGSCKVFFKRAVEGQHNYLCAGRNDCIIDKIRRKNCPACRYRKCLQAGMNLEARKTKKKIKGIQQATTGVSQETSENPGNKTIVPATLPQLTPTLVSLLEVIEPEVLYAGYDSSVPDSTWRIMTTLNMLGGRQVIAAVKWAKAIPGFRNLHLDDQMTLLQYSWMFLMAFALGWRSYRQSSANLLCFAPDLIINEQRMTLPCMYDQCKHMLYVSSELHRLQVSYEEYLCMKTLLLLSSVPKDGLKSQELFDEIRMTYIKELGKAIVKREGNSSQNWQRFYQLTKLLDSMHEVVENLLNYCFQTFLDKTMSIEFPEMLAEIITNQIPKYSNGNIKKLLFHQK
Description: Displacement of [3H]dexamethasone from human recombinant glucocorticoid receptor expressed in insect cells after 24 hrs by scintillation proximity assay

[2] = system: RAW264.7; test: cells; conditions: Mus musculus
Description: Antiinflammatory activity in mouse RAW264.7 cells assessed as inhibition of LPS-induced nitric oxide release preincubated for 15 mins followed by LPS challenge measured after 18 hrs by Griess assay

[3] = target: T1, Glucocorticoid receptor
Description: Induction of nuclear translocation of human recombinant ProLabel-tagged glucocorticoid receptor expressed in CHO-K1 cells after 3 hrs by luminescence method

[4] = physchem
Description: Dissociation constant, pKa of the compound

[5] = target: T2, Mineralocorticoid receptor (Homo sapiens, UniProt P08235)
T2 sequence (P08235 whole entry): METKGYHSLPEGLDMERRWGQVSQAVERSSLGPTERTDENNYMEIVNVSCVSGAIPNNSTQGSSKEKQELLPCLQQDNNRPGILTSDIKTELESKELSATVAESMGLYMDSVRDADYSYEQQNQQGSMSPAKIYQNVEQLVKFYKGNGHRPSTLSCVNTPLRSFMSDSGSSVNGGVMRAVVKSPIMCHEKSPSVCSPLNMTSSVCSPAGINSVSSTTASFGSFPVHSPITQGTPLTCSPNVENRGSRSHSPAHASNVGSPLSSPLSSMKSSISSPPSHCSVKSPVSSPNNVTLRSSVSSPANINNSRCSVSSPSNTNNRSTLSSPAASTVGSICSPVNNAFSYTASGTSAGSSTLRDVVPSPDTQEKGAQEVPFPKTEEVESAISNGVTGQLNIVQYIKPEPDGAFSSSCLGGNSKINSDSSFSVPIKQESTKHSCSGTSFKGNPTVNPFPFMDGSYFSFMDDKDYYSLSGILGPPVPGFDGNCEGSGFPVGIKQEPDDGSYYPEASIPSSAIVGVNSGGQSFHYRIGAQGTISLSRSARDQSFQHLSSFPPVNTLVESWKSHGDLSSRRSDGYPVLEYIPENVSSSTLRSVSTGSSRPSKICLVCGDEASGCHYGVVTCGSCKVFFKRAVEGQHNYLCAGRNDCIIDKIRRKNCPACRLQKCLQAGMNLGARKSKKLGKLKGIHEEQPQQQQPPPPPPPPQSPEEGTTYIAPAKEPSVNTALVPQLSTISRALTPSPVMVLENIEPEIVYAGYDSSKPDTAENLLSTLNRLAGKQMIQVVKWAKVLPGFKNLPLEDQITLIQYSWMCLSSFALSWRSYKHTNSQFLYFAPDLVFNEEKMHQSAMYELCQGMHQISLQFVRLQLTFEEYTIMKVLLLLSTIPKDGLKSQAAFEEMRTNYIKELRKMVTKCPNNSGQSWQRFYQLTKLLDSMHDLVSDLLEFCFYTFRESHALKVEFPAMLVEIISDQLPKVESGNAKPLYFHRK
Description: Induction of nuclear translocation of human recombinant ProLabel-tagged mineralocorticoid receptor expressed in CHO-K1 cells after 3 hrs by luminescence method

[6] = Cmax in Sprague-Dawley rat plasma at 1 umol/kg, it by HPLC-MS/MS method; type: ADME, cell-free; parameters: dose 1 umol/kg; conditions: inhaled or intranasal
[7] = MRTlast in Sprague-Dawley rat lung at 1 umol/kg, it by HPLC-MS/MS method; type: ADME, tissue-based; conditions: inhaled or intranasal
[8] = Cmax in Sprague-Dawley rat lung at 1 umol/kg, it by HPLC-MS/MS method; type: ADME, tissue-based; parameters: dose 1 umol/kg; conditions: in vivo, inhaled_or_intranasal
[9] = MRTlast in Sprague-Dawley rat plasma at 1 umol/kg, it by HPLC-MS/MS method; type: ADME, cell-free; conditions: inhaled or intranasal
[10] = AUClast in Sprague-Dawley rat lung at 1 umol/kg, it by HPLC-MS/MS method; type: ADME, tissue-based; conditions: in vivo, inhaled_or_intranasal
[11] = AUClast in Sprague-Dawley rat plasma at 1 umol/kg, it by HPLC-MS/MS method; type: ADME, cell-free; conditions: inhaled or intranasal

C[C@]12C=CC(=O)C=C1[C@@H](F)C[C@H]1[C@@H]3C[C@H]4CN(S(=O)(=O)c5cccs5)C[C@@]4(C(=O)CO)[C@@]3(C)C[C@H](O)[C@@]12F
Ki [1]: 0.66 nM
IC50 [2]: 3.68 nM
EC50 [3]: 7.4 nM

C[C@]12C=CC(=O)C=C1[C@@H](F)C[C@H]1[C@@H]3C[C@H]4CN(C(=O)OCc5ccccc5)C[C@@]4(C(=O)CO)[C@@]3(C)C[C@H](O)[C@@]12F
Ki [1]: 0.66 nM
EC50 [3]: 44.1 nM

C[C@]12C=CC(=O)C=C1[C@@H](F)C[C@H]1[C@@H]3C[C@H]4CN(c5ccc(Cl)cc5)C[C@@]4(C(=O)CO)[C@@]3(C)C[C@H](O)[C@@]12F
Ki [1]: 0.67 nM
IC50 [2]: 0.66 nM
EC50 [3]: 8.5 nM
pKa [4]: 4.42

C[C@]12C=CC(=O)C=C1[C@@H](F)C[C@H]1[C@@H]3C[C@H]4CN(C(=O)c5ccccc5)C[C@@]4(C(=O)CO)[C@@]3(C)C[C@H](O)[C@@]12F
EC50 [3]: 248 nM

CC(C)CCN1C[C@@H]2C[C@H]3[C@@H]4C[C@H](F)C5=CC(=O)C=C[C@]5(C)[C@@]4(F)[C@@H](O)C[C@]3(C)[C@]2(C(=O)CO)C1
Ki [1]: 1.9 nM
IC50 [2]: 0.22 nM
EC50 [3]: 3.4 nM
pKa [4]: 7.98

CN(C)C(=O)[C@@]12CN(Cc3ccccc3)C[C@@H]1C[C@H]1[C@@H]3C[C@H](F)C4=CC(=O)C=C[C@]4(C)[C@@]3(F)[C@@H](O)C[C@@]12C
EC50 [5]: > 3000 nM
Ki [1]: 1.1 nM
EC50 [3]: 40.3 nM
pKa [4]: 7.3

C[C@]12C=CC(=O)C=C1[C@@H](F)C[C@H]1[C@@H]3C[C@H]4CN(Cc5cccnc5)C[C@@]4(C(=O)CO)[C@@]3(C)C[C@H](O)[C@@]12F
EC50 [3]: 63.9 nM
pKa [4]: 4.11

C[C@]12C=CC(=O)C=C1[C@@H](F)C[C@H]1[C@@H]3C[C@H]4CN(Cc5ccccc5)C[C@@]4(C(=O)NCc4ccccc4)[C@@]3(C)C[C@H](O)[C@@]12F
Ki [1]: 9.8 nM
EC50 [3]: 50 nM
pKa [4]: 7.05

C[C@]12C=CC(=O)C=C1[C@@H](F)C[C@H]1[C@@H]3C[C@H]4CN(c5cccc(Cl)c5)C[C@@]4(C(=O)CO)[C@@]3(C)C[C@H](O)[C@@]12F
Ki [1]: 0.52 nM
IC50 [2]: 0.4 nM
EC50 [3]: 5.8 nM
pKa [4]: 4.06

C[C@]12C=CC(=O)C=C1[C@@H](F)C[C@H]1[C@@H]3C[C@H]4CN(Cc5cccc(Cl)c5)C[C@@]4(C(=O)CO)[C@@]3(C)C[C@H](O)[C@@]12F.Cl
Cmax [6]: 90 nM
MRT last [7]: 6.4 h
Cmax [8]: 9.03 nmol/g
MRT last [9]: 1.1 h
AUClast [10]: 9 nmol·h/g
AUC(0-t) [11]: 0.12 µM·h

CN1C[C@@H]2C[C@H]3[C@@H]4C[C@H](F)C5=CC(=O)C=C[C@]5(C)[C@@]4(F)[C@@H](O)C[C@]3(C)[C@]2(C(=O)CO)C1
EC50 [3]: 54.9 nM
pKa [4]: 7.91

C[C@]12C=CC(=O)C=C1[C@@H](F)C[C@H]1[C@@H]3C[C@H]4CN(Cc5cccc(Cl)c5)C[C@@]4(C(=O)OCF)[C@@]3(C)C[C@H](O)[C@@]12F
Ki [1]: 0.57 nM
EC50 [3]: 20.8 nM
pKa [4]: 6.58

C[C@]12C=CC(=O)C=C1[C@@H](F)C[C@H]1[C@@H]3C[C@H]4CN(c5ccccc5)C[C@@]4(C(=O)CO)[C@@]3(C)C[C@H](O)[C@@]12F
Ki [1]: 0.39 nM
IC50 [2]: 0.34 nM
EC50 [3]: 1.3 nM
pKa [4]: 8.82
